Reference: patent publication US9758494B2, “N-(oxazol-2-yl)-aryl-carboxylic acid amides and use thereof as herbicides” (BAYER CROPSCIENCE AG, priority 2012, dated 2017)

Assays:
Format in all cases: in vivo
[1] = tested on: Stellaria media; test: Post-emergence herbicidal action; settings: Dosage 5/ha (Table T)
Experimental: (§1) Seeds of monocotyledonous and dicotyledonous weed plants and crop plants are laid out in wood fiber pots in sandy loam, covered with soil and cultivated in a greenhouse under good growth conditions. 2 to 3 weeks after sowing, the test plants are treated at the one-leaf stage. The compounds according to the invention, formulated in the form of wettable powders (WP) or as emulsion concentrates (EC), are then sprayed onto the green parts of the plants in the form of an aqueous suspension or emulsion at a water application rate equating to 600 to 800 l/ha, with addition of 0.2% wetting agent. After the test plants have been left to stand in the greenhouse under optimal growth conditions for about 3 weeks, the action of the preparations is assessed visually in comparison to untreated controls (herbicidal action in percent (%): 100% activity=the plants have died, 0% activity=like control plants). Here, for example, compounds No. 1-163, 1-171, 1-172, 1-173, 1-254, 1-283, 1-284, 1-293, 1-294 and 1-334, at an application rate of 80 g/ha, have an activity of at least 80% against Abutilon theophrasti and Amaranthus retroflexus.
(§2) In the tables below, the properties of the compounds according to the invention are compared to those of the structurally most similar compounds known from WO 2012/028579 A1. These tests were carried out by the pre- and post-emergence method under the conditions mentioned under item 1 and item 2. Here, the herbicidal activity against various harmful plants and the damage of some important crop plants were compared at different dosages.

[2] = tested on: Veronica persica; test: Post-emergence herbicidal action; settings: Dosage 5/ha (Table T)
Experimental: as §1, §2

[3] = tested on: Matricaria inodora; test: Pre-emergence herbicidal action; settings: Dosage 80/ha (Table H)
Text: (§3) Seeds of monocotyledonous and dicotyledonous weed plants and crop plants are laid out in wood-fiber pots in sandy loam and covered with soil. The compounds according to the invention, formulated in the form of wettable powders (WP) or as emulsion concentrates (EC), are then applied to the surface of the soil cover in the form of an aqueous suspension or emulsion at a water application rate equating to 600 to 800 l/ha, with addition of 0.2% wetting agent. After the treatment, the pots are placed in a greenhouse and kept under good growth conditions for the test plants. The damage to the test plants is assessed visually after a test period of 3 weeks by comparison with untreated controls (herbicidal activity in percent (%): 100% activity=the plants have died, 0% activity=like control plants). Here, for example, compounds No. 1-163, 1-171, 1-172, 1-283, 1-284, 1-294, 1-295, 1-334, 10-001 and 11-343, at an application rate of 320 g/ha, have an activity of at least 80% against Veronica persica.
as §2

[4] = tested on: Echinochloa crus galli; test: Pre-emergence herbicidal action; settings: Dosage 80/ha (Table H)
Text: as §3, §2

[5] = tested on: Zea mays (Corn); test: Post-emergence, damage of crop plants; settings: Dosage 80 g/ha (Table U)
Experimental: as §1, §2

[6] = tested on: Oryza sativa (Rice); test: Post-emergence, damage of crop plants; settings: Dosage 80 g/ha (Table U)
Experimental: as §1, §2

[7] = tested on: Oryza sativa (Rice); test: Pre-emergence, damage of crop plants
Text: as §3, §2

O=C(Nc1ncco1)c1ccc(C(F)(F)F)nc1Cl [10-1]
herbicidal activity against harmful plants STEME [1]: 40%
herbicidal activity against harmful plants VERPE [2]: 90%
herbicidal activity against harmful plants MATIN [3]: 90%
herbicidal activity against harmful plants ECGCG [4]: 70%
damage of crop plants ZEAMX [5]: 0%
damage of crop plants ORYZA [6]: 0%
Damage of ORYZA ([7]; 20 g/ha (Table I)): 0%
Damage of ORYZA ([7]; 80 g/ha (Table I)): 0%
